15 compounds from patent publication EP4578856A1, “HETEROCYCLIC COMPOUND” (Ubience Inc., priority 2022, dated 2024) can be followed below.

Where only a bound is given, the exact number is not on record here.

The target in the assay is ROCK2 protein (Homo sapiens, UniProt O75116). Description: Degradation inducing activity of ROCK2 protein in HUVEC cells, Western blotting (Simple Western JESS). Format: cell-based. Further details: endogenous in cells; host or cells: HUVEC (ATCC CRL-1730). Particulars: for inhibition at 1 µM / inhibition at 10 µM: HUVEC, 24 h; for ROCK2 protein degradation rate: 24 hours. Summed up: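 HUVEC cells treated 24 h with compound at 10 µM or 1 µM, then lysed; ROCK2 quantified by capillary Western (Simple Western JESS) using rabbit mAb D1B1, normalized to total loaded protein. Degradation rate (%) calculated relative to DMSO control set at 100%, binned A ≥75%, B 50–75%, C 25–50%, D <25%.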
ROCK2 protein, sequence (O75116 whole entry): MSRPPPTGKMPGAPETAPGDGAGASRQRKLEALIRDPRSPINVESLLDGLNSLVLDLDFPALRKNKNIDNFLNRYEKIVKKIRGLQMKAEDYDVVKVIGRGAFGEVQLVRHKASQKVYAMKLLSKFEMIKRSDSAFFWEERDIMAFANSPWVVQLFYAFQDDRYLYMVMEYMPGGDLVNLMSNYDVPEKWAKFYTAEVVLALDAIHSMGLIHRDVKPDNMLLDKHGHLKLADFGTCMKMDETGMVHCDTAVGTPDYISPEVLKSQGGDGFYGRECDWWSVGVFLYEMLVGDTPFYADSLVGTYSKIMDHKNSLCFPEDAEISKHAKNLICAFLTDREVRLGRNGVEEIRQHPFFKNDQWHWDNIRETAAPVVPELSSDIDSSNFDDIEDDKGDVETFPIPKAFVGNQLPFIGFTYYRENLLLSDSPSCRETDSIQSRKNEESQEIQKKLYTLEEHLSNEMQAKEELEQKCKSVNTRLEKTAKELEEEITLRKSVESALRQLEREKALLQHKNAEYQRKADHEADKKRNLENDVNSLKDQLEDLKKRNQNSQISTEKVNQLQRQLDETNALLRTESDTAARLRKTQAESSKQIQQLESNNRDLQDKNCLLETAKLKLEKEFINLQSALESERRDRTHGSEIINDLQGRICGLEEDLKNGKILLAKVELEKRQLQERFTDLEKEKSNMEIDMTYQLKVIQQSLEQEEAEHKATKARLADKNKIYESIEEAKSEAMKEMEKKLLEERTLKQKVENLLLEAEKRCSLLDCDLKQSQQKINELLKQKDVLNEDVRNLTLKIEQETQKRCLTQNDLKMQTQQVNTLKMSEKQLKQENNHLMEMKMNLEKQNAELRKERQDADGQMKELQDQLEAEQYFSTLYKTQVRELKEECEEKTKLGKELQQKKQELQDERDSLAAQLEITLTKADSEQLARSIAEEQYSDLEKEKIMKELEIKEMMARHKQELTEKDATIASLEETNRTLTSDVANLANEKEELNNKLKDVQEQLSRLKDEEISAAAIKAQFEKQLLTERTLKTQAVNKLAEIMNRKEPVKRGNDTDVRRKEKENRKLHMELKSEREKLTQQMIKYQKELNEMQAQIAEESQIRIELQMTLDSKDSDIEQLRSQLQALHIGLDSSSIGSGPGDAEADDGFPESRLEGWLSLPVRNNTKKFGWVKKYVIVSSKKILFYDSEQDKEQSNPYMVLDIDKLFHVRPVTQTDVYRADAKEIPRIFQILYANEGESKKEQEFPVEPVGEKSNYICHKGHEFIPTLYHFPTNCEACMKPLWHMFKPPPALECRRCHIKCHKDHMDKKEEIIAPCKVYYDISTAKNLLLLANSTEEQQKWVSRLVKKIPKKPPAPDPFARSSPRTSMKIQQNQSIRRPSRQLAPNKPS

What is called inhibition is the percentage by which the read-out fell short of the control. High values mean a response far below the control, low ones a response near the control. Compound `COC[C@H]1CN[C@H](C)CN1CC(=O)N1CC(C)(C)c2ncc(Cc3cccc(OCCOCCOCCOCCNC[C@@H](C(=O)Nc4ccc5cnccc5c4)c4ccccc4)c3)cc21` [Example 59, (S)-N-(Isoquinolin-6-yl)-1-(3-((1-(2-((2R,5R)-2-(methoxymethyl)-5-methylpiperazin-1-yl)acetyl)-3,3-dimethyl-2,3-dihydro-1H-pyrrolo[3,2-b]pyridin-6-yl)methyl)phenoxy)-14-phenyl-3,6,9-trioxa-12-azapentadecan-15-amide] displayed an inhibition at 1 µM (degradation rate at 1 µM) not below 75%. Under “degradation rate at 10 µM”, the inhibition at 10 µM is not below 75%.

Consider `COC[C@H]1CN[C@H](C)CN1CC(=O)N1CC(C)(C)c2ncc(Cc3ccccc3OCCOCCOCCOCCOCCNC[C@@H](C(=O)Nc3ccc4cnccc4c3)c3ccccc3)cc21` [Example 81, (S)-N-(Isoquinolin-6-yl)-1-(2-((1-(2-((2R,5R)-2-(methoxymethyl)-5-methylpiperazin-1-yl)acetyl)-3,3-dimethyl-2,3-dihydro-1H-pyrrolo[3,2-b]pyridin-6-yl)methyl)phenoxy)-17-phenyl-3,6,9,12-tetraoxa-15-azaoctadecan-18-amide], for which the inhibition at 1 µM (degradation rate at 1 µM) lay within 50 to 75%. The inhibition at 10 µM (degradation rate at 10 µM) was in the range of 25 to 50%.

Consider `COC[C@H]1CN[C@H](C)CN1CC(=O)N1CC(C)(C)c2ncc(Cc3ccccc3OCCOCCOCCN[C@H](C)c3ccc(C(=O)Nc4ccncc4)cc3)cc21` [Example 65, 4-((R)-1-((2-(2-(2-(2-((1-(2-((2R,5R)-2-(Methoxymethyl)-5-methylpiperazin-1-yl)acetyl)-3,3-dimethyl-2,3-dihydro-1H-pyrrolo[3,2-b]pyridin-6-yl)methyl)phenoxy)ethoxy)ethoxy)ethyl)amino)ethyl)-N-(pyridin-4-yl)benzamide], for which the “ROCK2 protein degradation rate” value runs as follows: (degradation rate at 1 µM) “D (D < 25%)”; (degradation rate at 10 µM) “B (75% > B ≥ 50%)”.

Turning to `C[C@@H]1CN(CC(=O)N2CC(C)(C)c3ncc(Cc4ccc(F)cc4)cc32)[C@@H](CN(C)CCOCCN[C@H](C)c2ccc(C(=O)Nc3ccncc3)cc2)CN1` [Example 1, 4-((R)-1-((2-(2-((((2R,5R)-1-(2-(6-(4-Fluorobenzyl)-3,3-dimethyl-2,3-dihydro-1H-pyrrolo[3,2-b]pyridin-1-yl)-2-oxoethyl)-5-methylpiperazin-2-yl)methyl)(methyl)amino)ethoxy)ethyl)amino)ethyl)-N-(pyridin-4-yl)benzamide], for the setting “degradation rate at 1 µM”, the inhibition at 1 µM was in the range of 25 to 50%. This compound gave an inhibition at 10 µM (degradation rate at 10 µM) not below 75%.

Turning to `COC[C@H]1CN[C@H](C)CN1CC(=O)N1CC(C)(C)c2ncc(Cc3cccc(OCCOCCOCCN[C@H](C)c4ccc(C(=O)Nc5ccncc5)cc4)c3)cc21` [Example 44, 4-((R)-1-((2-(2-(2-(3-((1-(2-((2R,5R)-2-(Methoxymethyl)-5-methylpiperazin-1-yl)acetyl)-3,3-dimethyl-2,3-dihydro-1H-pyrrolo[3,2-b]pyridin-6-yl)methyl)phenoxy)ethoxy)ethoxy)ethyl)amino)ethyl)-N-(pyridin-4-yl)benzamide], the inhibition at 1 µM (degradation rate at 1 µM) was in the range of 50 to 75%. The compound also returned an inhibition at 10 µM (degradation rate at 10 µM) not below 75%.

Consider `COC[C@H]1CN[C@H](C)CN1CC(=O)N1CC(C)(C)c2ncc(Cc3cccc(OCCOCCOCCOCCOCCN[C@H](C)c4ccc(C(=O)Nc5ccncc5)cc4)c3)cc21` [Example 46, 4-((R)-17-(3-((1-(2-((2R,5R)-2-(Methoxymethyl)-5-methylpiperazin-1-yl)acetyl)-3,3-dimethyl-2,3-dihydro-1H-pyrrolo[3,2-b]pyridin-6-yl)methyl)phenoxy)-6,9,12,15-tetraoxa-3-azaheptadecan-2-yl)-N-(pyridin-4-yl)benzamide], for which the inhibition at 1 µM (degradation rate at 1 µM) was 25 to 50%. The same compound had an inhibition at 10 µM (degradation rate at 10 µM) of 25 to 50%.

Under “degradation rate at 1 µM”, `COC[C@H]1CN[C@H](C)CN1CC(=O)N1CC(C)(C)c2ncc(Cc3ccccc3OCCOCCOCCOCCOCCN[C@H](Cc3cccc(F)c3)C(=O)Nc3ccc(-c4ccncc4)cc3)cc21` [Example 74, (R)-2-(3-Fluorobenzyl)-17-(2-((1-(2-((2R,5R)-2-(methoxymethyl)-5-methylpiperazin-1-yl)acetyl)-3,3-dimethyl-2,3-dihydro-1H-pyrrolo[3,2-b]pyridin-6-yl)methyl)phenoxy)-N-(4-(pyridin-4-yl)phenyl)-6,9,12,15-tetraoxa-3-azaheptadecanamide] returned an inhibition at 1 µM of less than 25%. The inhibition at 10 µM (degradation rate at 10 µM) was 50 to 75%.

With `COC[C@H]1CN[C@H](C)CN1CC(=O)N1CC(C)(C)c2nc(CN(C)CCOCCOCCOCCOCCN[C@H](Cc3cccc(F)c3)C(=O)Nc3ccc(-c4ccncc4)cc3)c(Cc3ccc(F)cc3)cc21` [Example 32, (R)-18-(3-Fluorobenzyl)-1-(6-(4-fluorobenzyl)-1-(2-((2R,5R)-2-(methoxymethyl)-5-methylpiperazin-1-yl)acetyl)-3,3-dimethyl-2,3-dihydro-1H-pyrrolo[3,2-b]pyridin-5-yl)-2-methyl-N-(4-(pyridin-4-yl)phenyl)-5,8,11,14-tetraoxa-2,17-diazanonadecan-19-amide], the inhibition at 1 µM (degradation rate at 1 µM) is less than 25%. In addition, the inhibition at 10 µM (degradation rate at 10 µM) is not below 75%.

Consider `COC[C@H]1CN[C@H](C)CN1CC(=O)N1CC(C)(C)c2ncc(Cc3ccccc3OCCOCCOCCOCCOCCOCCN[C@H](Cc3cccc(F)c3)C(=O)Nc3ccc(-c4ccncc4)cc3)cc21` [Example 75, (R)-2-(3-Fluorobenzyl)-20-(2-((1-(2-((2R,5R)-2-(methoxymethyl)-5-methylpiperazin-1-yl)acetyl)-3,3-dimethyl-2,3-dihydro-1H-pyrrolo[3,2-b]pyridin-6-yl)methyl)phenoxy)-N-(4-(pyridin-4-yl)phenyl)-6,9,12,15,18-pentaoxa-3-azaicosanamide], for which the inhibition at 1 µM (degradation rate at 1 µM) is less than 25%. In addition, the inhibition at 10 µM (degradation rate at 10 µM) was 50 to 75%.

`COC[C@H]1CN[C@H](C)CN1CC(=O)N1CC(C)(C)c2ncc(Cc3ccccc3OCCOCCOCCOCCOCCOCCOCCOCCNC[C@@H](C(=O)Nc3ccc4cnccc4c3)c3ccccc3)cc21` [Example 84, (S)-N-(Isoquinolin-6-yl)-1-(2-((1-(2-((2R,5R)-2-(methoxymethyl)-5-methylpiperazin-1-yl)acetyl)-3,3-dimethyl-2,3-dihydro-1H-pyrrolo[3,2-b]pyridin-6-yl)methyl)phenoxy)-26-phenyl-3,6,9,12,15,18,21-heptaoxa-24-azaheptacosan-27-amide]: the inhibition at 1 µM (degradation rate at 1 µM) was in the range of 50 to 75%. This compound also registered an inhibition at 10 µM (degradation rate at 10 µM) of 25 to 50%.

The compound `C[C@@H]1CN(CC(=O)N2CC(C)(C)c3ncc(Cc4ccc(F)cc4)cc32)[C@@H](CN(C)CCOCCNC[C@@H](C(=O)Nc2ccc3cnccc3c2)c2ccccc2)CN1` [Example 15, (S)-3-((2-(2-((((2R,5R)-1-(2-(6-(4-Fluorobenzyl)-3,3-dimethyl-2,3-dihydro-1H-pyrrolo[3,2-b]pyridin-1-yl)-2-oxoethyl)-5-methylpiperazin-2-yl)methyl)(methyl)amino)ethoxy)ethyl)amino)-N-(isoquinolin-6-yl)-2-phenylpropanamide] came in with an inhibition at 1 µM (degradation rate at 1 µM) of less than 25%. The compound further had an inhibition at 10 µM (degradation rate at 10 µM) not below 75%.

`C[C@@H]1CN(CC(=O)N2CC(C)(C)c3ncc(Cc4ccc(F)cc4)cc32)[C@@H](CN(C)CCOCCOCCOCCOCCNC[C@@H](C(=O)Nc2ccc3cnccc3c2)c2ccccc2)CN1` [Example 18, (S)-1-((2R,5R)-1-(2-(6-(4-Fluorobenzyl)-3,3-dimethyl-2,3-dihydro-1H-pyrrolo[3,2-b]pyridin-1-yl)-2-oxoethyl)-5-methylpiperazin-2-yl)-N-(isoquinolin-6-yl)-2-methyl-19-phenyl-5,8,11,14-tetraoxa-2,17-diazaicosan-20-amide] came in with an inhibition at 1 µM (degradation rate at 1 µM) not below 75%. The compound also displayed an inhibition at 10 µM (degradation rate at 10 µM) not below 75%.

The compound `COC[C@H]1CN[C@H](C)CN1CC(=O)N1CC(C)(C)c2ncc(Cc3cccc(OCCOCCOCCOCCOCCNC[C@@H](C(=O)Nc4ccc5cnccc5c4)c4ccccc4)c3)cc21` [Example 60, (S)-N-(Isoquinolin-6-yl)-1-(3-((1-(2-((2R,5R)-2-(methoxymethyl)-5-methylpiperazin-1-yl)acetyl)-3,3-dimethyl-2,3-dihydro-1H-pyrrolo[3,2-b]pyridin-6-yl)methyl)phenoxy)-17-phenyl-3,6,9,12-tetraoxa-15-azaoctadecan-18-amide] came in with an inhibition at 1 µM (degradation rate at 1 µM) of 25 to 50%. Besides, the inhibition at 10 µM (degradation rate at 10 µM) is not below 75%.

For `C[C@@H]1CN(CC(=O)N2CC(C)(C)c3ncc(Cc4ccc(F)cc4)cc32)[C@@H](CN(C)CCOCCOCCOCCOCCN[C@H](Cc2cccc(F)c2)C(=O)Nc2ccc(-c3ccncc3)cc2)CN1` [Example 11, (R)-18-(3-Fluorobenzyl)-1-((2R,5R)-1-(2-(6-(4-fluorobenzyl)-3,3-dimethyl-2,3-dihydro-1H-pyrrolo[3,2-b]pyridin-1-yl)-2-oxoethyl)-5-methylpiperazin-2-yl)-2-methyl-N-(4-(pyridin-4-yl)phenyl)-5,8,11,14-tetraoxa-2,17-diazanonadecan-19-amide], for the setting “degradation rate at 1 µM”, the inhibition at 1 µM was in the range of 50 to 75%. Besides, the inhibition at 10 µM (degradation rate at 10 µM) was not below 75%.

Compound `COC[C@H]1CN[C@H](C)CN1CC(=O)N1CC(C)(C)c2ncc(Cc3cccc(OCCOCCN[C@H](Cc4cccc(F)c4)C(=O)Nc4ccc(-c5ccncc5)cc4)c3)cc21` [Example 50, (R)-3-(3-Fluorophenyl)-2-((2-(2-(3-((1-(2-((2R,5R)-2-(methoxymethyl)-5-methylpiperazin-1-yl)acetyl)-3,3-dimethyl-2,3-dihydro-1H-pyrrolo[3,2-b]pyridin-6-yl)methyl)phenoxy)ethoxy)ethyl)amino)-N-(4-(pyridin-4-yl)phenyl)propanamide] gave an inhibition at 1 µM (degradation rate at 1 µM) of 25 to 50%. For the same compound, under “degradation rate at 10 µM”, the inhibition at 10 µM was not below 75%.
